# US8524717B2, “Oxidase inhibitors and their use” (Oryzon Genomics, S.A., priority 2008, dated 2013)
# How the values were obtained:
# MAO-B = MAO-B (Homo sapiens (Human), UniProt P27338); test: Monoamine oxidase assay (kynuramine to 4-hydroxyquinoline fluorescence), MAO-B; type: biochemical; settings: Table 1
# Description: (§1) Human recombinant monoamine oxidase proteins MAO-A and MAO-B were purchased from Sigma Aldrich. MOAs catalyze the oxidative deamination of 1°, 2° and 3° amines. In order to monitor MAO enzymatic activities and/or their inhibition rate by inhibitor(s) of interest, a fluorescent-based (inhibitor)-screening assay was set up. 3-(2-Aminophenyl)-3-oxopropamamine (kynuramine dihydrobromide, Sigma Aldrich), a non fluorescent compound was chosen as a substrate. Kynuramine is a non-specific substrate for both MAOs activities. While undergoing oxidative deamination by MAO activities, kynuramine is converted into 4-hydroxyquinoline (4-HQ), a resulting fluorescent product.
# (§2) The monoamine oxidase activity was estimated by measuring the conversion of kynuramine into 4-hydroxyquinoline. Assays were conducted in 96-well black plates with clear bottom (Corning) in a final volume of 100 μL. The assay buffer was 100 mM HEPES, pH 7.5. Each experiment was performed in triplicate within the same experiment.
# (§3) The oxidative deamination of the substrate was stopped by adding 50 μL (v/v) of NaOH 2N.
# (§4) The Ki of each inhibitor was measure at Vmax/2.
# [1] = biological target: Human recombinant LSD1 protein (Homo sapiens (Human), UniProt O60341); test: LSD1 demethylase inhibition assay (Amplex Red peroxide/peroxidase-coupled, di-methylated H3-K4 peptide); settings: for LSD1 percent at fixed concentration: at 20 μM; for ability to inhibit LSD1: preliminary assays, result in words
# Description: The demethylase activity was estimated, under aerobic conditions, by measuring the release of H2O2 produced during the catalytic process, using the Amplex® Red peroxide/peroxidase-coupled assay kit (Invitrogen).
# Tranylcypromine (Biomol International) was used as a control for inhibition. Within the experiment, each concentration of inhibitor was tested in triplicate. […] The enzymatic reactions were set up in a 50 mM sodium phosphate, pH 7.4 buffer. […] A 1 μM H2O2 solution was used as a control of the kit efficiency. The conversion of the Amplex® Red reagent to resorufin due to the presence of H2O2 in the assay, was monitored by fluorescence (excitation at 540 nm, emission at 590 nm) using a microplate reader (Infinite 200, Tecan). Arbitrary units were used to measure level of H2O2 produced in the absence and/or in the presence of inhibitor.
# The Ki of each inhibitor was estimated at half of the maximum activity.
# MAO-A = MAO-A (Homo sapiens (Human), UniProt P21397); test: Monoamine oxidase assay (kynuramine to 4-hydroxyquinoline fluorescence), MAO-A; type: biochemical; settings: for Ki: Table 1
# Sequence of MAO-A (P21397 whole entry): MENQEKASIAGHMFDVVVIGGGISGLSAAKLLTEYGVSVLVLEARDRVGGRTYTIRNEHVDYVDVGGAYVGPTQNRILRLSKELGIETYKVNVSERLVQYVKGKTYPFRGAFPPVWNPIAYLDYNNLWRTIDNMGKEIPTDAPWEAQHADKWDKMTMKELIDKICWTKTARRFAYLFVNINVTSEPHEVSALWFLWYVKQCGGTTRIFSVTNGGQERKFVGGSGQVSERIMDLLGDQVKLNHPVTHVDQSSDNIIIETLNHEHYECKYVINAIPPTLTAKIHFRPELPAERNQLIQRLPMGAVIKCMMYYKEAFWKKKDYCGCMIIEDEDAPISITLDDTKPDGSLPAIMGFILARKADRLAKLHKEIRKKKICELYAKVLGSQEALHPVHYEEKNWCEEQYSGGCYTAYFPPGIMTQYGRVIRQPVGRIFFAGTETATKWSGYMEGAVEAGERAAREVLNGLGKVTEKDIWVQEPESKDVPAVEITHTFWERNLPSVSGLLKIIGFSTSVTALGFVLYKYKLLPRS
# Description: as §1, §2, §3, §4
# Sequence of MAO-B (P27338 whole entry): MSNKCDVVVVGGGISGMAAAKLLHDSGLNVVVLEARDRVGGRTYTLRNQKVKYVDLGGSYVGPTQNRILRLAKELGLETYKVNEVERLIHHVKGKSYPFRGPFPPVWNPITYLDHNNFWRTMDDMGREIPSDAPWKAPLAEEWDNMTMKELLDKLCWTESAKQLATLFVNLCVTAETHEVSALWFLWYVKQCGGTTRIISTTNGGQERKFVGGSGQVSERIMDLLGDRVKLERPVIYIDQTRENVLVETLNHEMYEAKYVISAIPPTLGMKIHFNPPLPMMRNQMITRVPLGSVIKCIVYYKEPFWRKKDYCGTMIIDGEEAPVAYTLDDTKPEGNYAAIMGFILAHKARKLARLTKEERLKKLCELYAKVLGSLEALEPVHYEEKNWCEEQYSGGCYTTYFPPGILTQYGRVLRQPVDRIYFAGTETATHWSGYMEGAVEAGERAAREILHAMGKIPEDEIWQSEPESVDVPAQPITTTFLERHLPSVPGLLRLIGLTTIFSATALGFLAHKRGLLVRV
Ki (MAO-B) [µM],LSD1 percent at fixed concentration [1] [% at 20],Ki (MAO-A) [µM],IC50 value for MAO-A (MAO-A),Ki [1] [µM],ability to inhibit LSD1 [1],Compound
> 100,40,> 100,,,,"CN(CC(N)=O)[C@H]1C[C@@H]1c1ccccc1 (relative stereo) [Example 20, 2-{methyl[(trans)-2-phenylcyclopropyl]amino}acetamide]"
,,11,low micromolar range,,,"CN1CCN(C(=O)CN[C@H]2C[C@@H]2c2ccc(OCc3ccccc3)cc2)CC1 (relative stereo) [Example 26, 2-((trans)-2-(4-(benzyloxy)phenyl)cyclopropylamino)-1-(4-methylpiperazin-1-yl)ethanone]"
,,,,> 100,did not inhibit LSD1,"CC(C)(C)NC(=O)CN(Cc1ccccc1)[C@H]1C[C@@H]1c1ccccc1 (relative stereo) [Example 21, 2-(benzyl((trans)-2-phenylcyclopropyl)amino)-N-tert-butylacetamide]"

# Further lines, the compound ahead of its results:
Compound,Ki (MAO-B) [µM],LSD1 percent at fixed concentration [1] [% at 20],Ki (MAO-A) [µM],IC50 value for MAO-A (MAO-A),Ki [1] [µM],ability to inhibit LSD1 [1]
"CN(C)CCNC(=O)CN[C@H]1C[C@@H]1c1ccccc1 (relative stereo) [Example 13, N-(2-(dimethylamino)ethyl)-2-((trans)-2-phenylcyclopropylamino)acetamide]",> 40,,> 40,,,
"CN(CC(=O)NC1CC1)[C@H]1C[C@@H]1c1ccccc1 (relative stereo) [Example 19, N-cyclopropyl-2-{methyl[(trans)-2-phenylcyclopropyl]amino}acetamide]",> 100,34,74,,,
"O=C(CN[C@H]1C[C@@H]1c1ccccc1)Nc1ccc(F)cc1 (relative stereo) [Example 8, N-(4-fluorophenyl)-2-{[(trans)-2-phenylcyclopropyl]amino}acetamide]",> 50,,> 50,,> 50,did not inhibit LSD1
